± gives the expanded uncertainty stated by the source.
Columns and labels:
[1] = molar heat capacity at constant pressure; settings: 101.33 kPa, Small (less than 1 g) adiabatic calorimetry
[2] = Molar enthalpy of transition or fusion; settings: Crystal
[3] = Crystal

OCC1c2ccccc2-c2ccccc21 [9-fluorenemethanol]
molar heat capacity at constant pressure ([1]; 78.5 K, Crystal): 74.59 J/K/mol | molar heat capacity at constant pressure ([1]; 79.9 K, Crystal): 75.63 J/K/mol | molar heat capacity at constant pressure ([1]; 82.26 K, Crystal): 77.22 J/K/mol | molar heat capacity at constant pressure ([1]; 84.64 K, Crystal): 78.94 J/K/mol | molar heat capacity at constant pressure ([1]; 85.94 K, Crystal): 79.76 J/K/mol | molar heat capacity at constant pressure ([1]; 87.24 K, Crystal): 80.69 J/K/mol | molar heat capacity at constant pressure ([1]; 88.54 K, Crystal): 81.69 J/K/mol | molar heat capacity at constant pressure ([1]; 89.84 K, Crystal): 82.71 J/K/mol | molar heat capacity at constant pressure ([1]; 91.05 K, Crystal): 83.42 J/K/mol | molar heat capacity at constant pressure ([1]; 92.27 K, Crystal): 84.33 J/K/mol | molar heat capacity at constant pressure ([1]; 93.81 K, Crystal): 85.44 J/K/mol | molar heat capacity at constant pressure ([1]; 95.68 K, Crystal): 86.83 J/K/mol | molar heat capacity at constant pressure ([1]; 97.47 K, Crystal): 88.34 J/K/mol | molar heat capacity at constant pressure ([1]; 99.25 K, Crystal): 89.58 J/K/mol | molar heat capacity at constant pressure ([1]; 101.04 K, Crystal): 90.8 J/K/mol | molar heat capacity at constant pressure ([1]; 102.74 K, Crystal): 92 J/K/mol | molar heat capacity at constant pressure ([1]; 104.45 K, Crystal): 93.28 J/K/mol | molar heat capacity at constant pressure ([1]; 106.15 K, Crystal): 94.37 J/K/mol | molar heat capacity at constant pressure ([1]; 107.78 K, Crystal): 95.55 J/K/mol | molar heat capacity at constant pressure ([1]; 110.05 K, Crystal): 97.38 J/K/mol | molar heat capacity at constant pressure ([1]; 112.81 K, Crystal): 99.34 J/K/mol | molar heat capacity at constant pressure ([1]; 115.57 K, Crystal): 101.09 J/K/mol | molar heat capacity at constant pressure ([1]; 118.25 K, Crystal): 103.07 J/K/mol | molar heat capacity at constant pressure ([1]; 120.84 K, Crystal): 105.05 J/K/mol | molar heat capacity at constant pressure ([1]; 123.44 K, Crystal): 107.15 J/K/mol | molar heat capacity at constant pressure ([1]; 126.04 K, Crystal): 109.39 J/K/mol | molar heat capacity at constant pressure ([1]; 128.55 K, Crystal): 111.1 J/K/mol | molar heat capacity at constant pressure ([1]; 131.07 K, Crystal): 112.95 J/K/mol | molar heat capacity at constant pressure ([1]; 133.5 K, Crystal): 114.39 J/K/mol | molar heat capacity at constant pressure ([1]; 135.94 K, Crystal): 116.5 J/K/mol | molar heat capacity at constant pressure ([1]; 138.38 K, Crystal): 118.22 J/K/mol | molar heat capacity at constant pressure ([1]; 140.73 K, Crystal): 120.24 J/K/mol | molar heat capacity at constant pressure ([1]; 143.08 K, Crystal): 121.92 J/K/mol | molar heat capacity at constant pressure ([1]; 145.44 K, Crystal): 123.49 J/K/mol | molar heat capacity at constant pressure ([1]; 147.79 K, Crystal): 125.56 J/K/mol | molar heat capacity at constant pressure ([1]; 150.06 K, Crystal): 127.26 J/K/mol | molar heat capacity at constant pressure ([1]; 152.34 K, Crystal): 129.25 J/K/mol | molar heat capacity at constant pressure ([1]; 154.61 K, Crystal): 130.86 J/K/mol | molar heat capacity at constant pressure ([1]; 156.8 K, Crystal): 132.44 J/K/mol | molar heat capacity at constant pressure ([1]; 158.99 K, Crystal): 134.22 J/K/mol | molar heat capacity at constant pressure ([1]; 161.18 K, Crystal): 136.08 J/K/mol | molar heat capacity at constant pressure ([1]; 163.38 K, Crystal): 137.61 J/K/mol | molar heat capacity at constant pressure ([1]; 165.57 K, Crystal): 139.23 J/K/mol | molar heat capacity at constant pressure ([1]; 167.68 K, Crystal): 141.01 J/K/mol | molar heat capacity at constant pressure ([1]; 169.87 K, Crystal): 142.68 J/K/mol | molar heat capacity at constant pressure ([1]; 171.98 K, Crystal): 144.26 J/K/mol | molar heat capacity at constant pressure ([1]; 174.09 K, Crystal): 145.97 J/K/mol | molar heat capacity at constant pressure ([1]; 176.12 K, Crystal): 147.81 J/K/mol | molar heat capacity at constant pressure ([1]; 178.23 K, Crystal): 149.54 J/K/mol | molar heat capacity at constant pressure ([1]; 180.26 K, Crystal): 151.27 J/K/mol | molar heat capacity at constant pressure ([1]; 182.29 K, Crystal): 153.26 J/K/mol | molar heat capacity at constant pressure ([1]; 184.32 K, Crystal): 155.07 J/K/mol | molar heat capacity at constant pressure ([1]; 186.35 K, Crystal): 156.65 J/K/mol | molar heat capacity at constant pressure ([1]; 188.38 K, Crystal): 158.43 J/K/mol | molar heat capacity at constant pressure ([1]; 190.32 K, Crystal): 160.03 J/K/mol | molar heat capacity at constant pressure ([1]; 192.27 K, Crystal): 161.75 J/K/mol | molar heat capacity at constant pressure ([1]; 194.22 K, Crystal): 163.44 J/K/mol | molar heat capacity at constant pressure ([1]; 196.17 K, Crystal): 165.02 J/K/mol | molar heat capacity at constant pressure ([1]; 198.12 K, Crystal): 167.02 J/K/mol | molar heat capacity at constant pressure ([1]; 200.06 K, Crystal): 168.41 J/K/mol | molar heat capacity at constant pressure ([1]; 201.93 K, Crystal): 170.12 J/K/mol | molar heat capacity at constant pressure ([1]; 203.88 K, Crystal): 172.09 J/K/mol | molar heat capacity at constant pressure ([1]; 205.75 K, Crystal): 173.99 J/K/mol | molar heat capacity at constant pressure ([1]; 207.69 K, Crystal): 175.77 J/K/mol | molar heat capacity at constant pressure ([1]; 209.56 K, Crystal): 177.8 J/K/mol | molar heat capacity at constant pressure ([1]; 211.43 K, Crystal): 179.56 J/K/mol | molar heat capacity at constant pressure ([1]; 213.21 K, Crystal): 181.31 J/K/mol | molar heat capacity at constant pressure ([1]; 215.08 K, Crystal): 183.23 J/K/mol | molar heat capacity at constant pressure ([1]; 216.95 K, Crystal): 185.04 J/K/mol | molar heat capacity at constant pressure ([1]; 218.73 K, Crystal): 186.49 J/K/mol | molar heat capacity at constant pressure ([1]; 220.52 K, Crystal): 188.39 J/K/mol | molar heat capacity at constant pressure ([1]; 222.38 K, Crystal): 190.43 J/K/mol | molar heat capacity at constant pressure ([1]; 224.17 K, Crystal): 192.38 J/K/mol | molar heat capacity at constant pressure ([1]; 225.96 K, Crystal): 194.23 J/K/mol | molar heat capacity at constant pressure ([1]; 227.66 K, Crystal): 195.8 J/K/mol | molar heat capacity at constant pressure ([1]; 229.45 K, Crystal): 197.65 J/K/mol | molar heat capacity at constant pressure ([1]; 231.15 K, Crystal): 199.09 J/K/mol | molar heat capacity at constant pressure ([1]; 232.86 K, Crystal): 201.07 J/K/mol | molar heat capacity at constant pressure ([1]; 234.64 K, Crystal): 202.79 J/K/mol | molar heat capacity at constant pressure ([1]; 236.35 K, Crystal): 203.84 J/K/mol | molar heat capacity at constant pressure ([1]; 238.05 K, Crystal): 205.56 J/K/mol | molar heat capacity at constant pressure ([1]; 239.75 K, Crystal): 207.12 J/K/mol | molar heat capacity at constant pressure ([1]; 241.46 K, Crystal): 208.72 J/K/mol | molar heat capacity at constant pressure ([1]; 243.08 K, Crystal): 210.03 J/K/mol | molar heat capacity at constant pressure ([1]; 244.71 K, Crystal): 211.22 J/K/mol | molar heat capacity at constant pressure ([1]; 246.41 K, Crystal): 212.28 J/K/mol | molar heat capacity at constant pressure ([1]; 248.12 K, Crystal): 213.72 J/K/mol | molar heat capacity at constant pressure ([1]; 249.74 K, Crystal): 215.05 J/K/mol | molar heat capacity at constant pressure ([1]; 251.36 K, Crystal): 216.5 J/K/mol | molar heat capacity at constant pressure ([1]; 253.07 K, Crystal): 218.21 J/K/mol | molar heat capacity at constant pressure ([1]; 254.69 K, Crystal): 219.66 J/K/mol | molar heat capacity at constant pressure ([1]; 256.31 K, Crystal): 220.83 J/K/mol | molar heat capacity at constant pressure ([1]; 257.94 K, Crystal): 221.75 J/K/mol | molar heat capacity at constant pressure ([1]; 259.56 K, Crystal): 223.22 J/K/mol | molar heat capacity at constant pressure ([1]; 261.18 K, Crystal): 224.27 J/K/mol | molar heat capacity at constant pressure ([1]; 262.73 K, Crystal): 225.73 J/K/mol | molar heat capacity at constant pressure ([1]; 264.35 K, Crystal): 226.9 J/K/mol | molar heat capacity at constant pressure ([1]; 265.97 K, Crystal): 228.35 J/K/mol | molar heat capacity at constant pressure ([1]; 267.6 K, Crystal): 229.68 J/K/mol | molar heat capacity at constant pressure ([1]; 269.14 K, Crystal): 231.11 J/K/mol | molar heat capacity at constant pressure ([1]; 270.68 K, Crystal): 232.43 J/K/mol | molar heat capacity at constant pressure ([1]; 272.14 K, Crystal): 233.76 J/K/mol | molar heat capacity at constant pressure ([1]; 273.68 K, Crystal): 235.07 J/K/mol | molar heat capacity at constant pressure ([1]; 276.77 K, Crystal): 237.44 J/K/mol | molar heat capacity at constant pressure ([1]; 280.83 K, Crystal): 240.46 J/K/mol | molar heat capacity at constant pressure ([1]; 284.15 K, Crystal): 243.34 J/K/mol | molar heat capacity at constant pressure ([1]; 287.89 K, Crystal): 246.4 J/K/mol | molar heat capacity at constant pressure ([1]; 291.22 K, Crystal): 248.63 J/K/mol | molar heat capacity at constant pressure ([1]; 294.46 K, Crystal): 252.05 J/K/mol | molar heat capacity at constant pressure ([1]; 297.55 K, Crystal): 255.07 J/K/mol | molar heat capacity at constant pressure ([1]; 300.71 K, Crystal): 258.24 J/K/mol | molar heat capacity at constant pressure ([1]; 303.8 K, Crystal): 261.53 J/K/mol | molar heat capacity at constant pressure ([1]; 306.96 K, Crystal): 265.22 J/K/mol | molar heat capacity at constant pressure ([1]; 310.05 K, Crystal): 268.37 J/K/mol | molar heat capacity at constant pressure ([1]; 313.05 K, Crystal): 272.08 J/K/mol | molar heat capacity at constant pressure ([1]; 316.13 K, Crystal): 275.5 J/K/mol | molar heat capacity at constant pressure ([1]; 319.22 K, Crystal): 279.32 J/K/mol | molar heat capacity at constant pressure ([1]; 322.22 K, Crystal): 283 J/K/mol | molar heat capacity at constant pressure ([1]; 325.23 K, Crystal): 287.49 J/K/mol | molar heat capacity at constant pressure ([1]; 328.23 K, Crystal): 292.62 J/K/mol | molar heat capacity at constant pressure ([1]; 331.15 K, Crystal): 297.89 J/K/mol | molar heat capacity at constant pressure ([1]; 334.07 K, Crystal): 303.26 J/K/mol | molar heat capacity at constant pressure ([1]; 337 K, Crystal): 308.39 J/K/mol | molar heat capacity at constant pressure ([1]; 339.84 K, Crystal): 314.22 J/K/mol | molar heat capacity at constant pressure ([1]; 342.68 K, Crystal): 320.06 J/K/mol | molar heat capacity at constant pressure ([1]; 345.44 K, Crystal): 326.47 J/K/mol | molar heat capacity at constant pressure ([1]; 348.03 K, Crystal): 332.27 J/K/mol | molar heat capacity at constant pressure ([1]; 350.71 K, Crystal): 338.6 J/K/mol | molar heat capacity at constant pressure ([1]; 353.31 K, Crystal): 344.72 J/K/mol | molar heat capacity at constant pressure ([1]; 355.99 K, Crystal): 351.11 J/K/mol | molar heat capacity at constant pressure ([1]; 358.59 K, Crystal): 357.3 J/K/mol | molar heat capacity at constant pressure ([1]; 360.94 K, Crystal): 363.05 J/K/mol | molar heat capacity at constant pressure ([1]; 378.41 K, Liquid): 50.2 ± 0.32 J/K/mol | molar heat capacity at constant pressure ([1]; 379.63 K, Liquid): 50.76 ± 0.32 J/K/mol | molar heat capacity at constant pressure ([1]; 381.41 K, Liquid): 51.75 ± 0.33 J/K/mol | molar heat capacity at constant pressure ([1]; 383.59 K, Liquid): 52.7 ± 0.33 J/K/mol | molar heat capacity at constant pressure ([1]; 385.71 K, Liquid): 53.72 ± 0.34 J/K/mol | molar heat capacity at constant pressure ([1]; 387.58 K, Liquid): 54.67 ± 0.34 J/K/mol | molar heat capacity at constant pressure ([1]; 389.69 K, Liquid): 55.38 ± 0.34 J/K/mol | Molar enthalpy of transition or fusion [2]: 6.279 ± 0.0203 kcal/mol | Triple point temperature [3]: 376.57 ± 0.077 K
